Measurements: patent publication US6429204B1, “Method of inhibiting cancer growth” (University of Miami, priority 1997, dated 2002)

Assays:
[1] = tested on: DU-145 and TSU-PR1 prostate cancer cell lines; assay: Prostate cancer cell viability/proliferation (trypan blue, MTT); type: cell-based, human; conditions: exposure time not stated (24 hr or 48 hr)
Description: To determine the cytotoxicity of CMTs on prostate tumor cell lines, TSU-PR1 cells (and cells of other tumor cell lines) were exposed to various CMTs or to doxycycline for 24 hr or 48 hr in a complete medium. Cell viability (percent of live cells) was estimated by counting the cells following trypan blue staining. Cellular viability was also estimated by the tetrazolium dye reduction assay (MTT assay) (Lokeshwar et al. 1995b). Due to the aggressive proliferative capacity of cancer cells, it is assumed that viable cells are actively proliferating. Therefore, the measurement of viability was used as an estimate of proliferation. Results are expressed as Mean±SEM from three separate experiments.

Dunning MAT LyLu cells [2] = assay: Cytotoxic effect on MAT LyLu cells (trypan blue); type: cell-based, rat; conditions: 24 hr or 48 hr exposure
Experimental: Cell viability was estimated by trypan blue staining following exposure to the drugs. The results of these studies are summarized in FIG. 4A (24 hours) and FIG. 4B (48 hr). Data are presented as Mean±SEM from three separate experiments.

Dunning MAT LyLu cells [3] = assay: Matrigel invasion assay (Boyden chamber, MTT), MAT LyLu; type: cell-based, rat; conditions: MAT LyLu, 5 μg/mL, 48 hr
Experimental: In this method, 4×10^5 tumor cells were plated on the top chamber of the Boyden chemotaxis assay chambers (Costar Transwell plates). The bottom side of the chamber was a 12 μm-pore polycarbonate filter layered with 0.5 mm thick layer of Matrigel. The bottom well contained a chemoattractant, a serum-free culture-conditioned medium from FHS 733 cells, a line of human fetal lung fibroblasts (ATCC No. HTB-157). Cancer cells (4×10^5) were plated in the top wells of the plates. Doxycycline or CMTs were diluted in a serum-free medium to 5 μg/mL, and were added to both top and bottom chambers. […] After 48 hr incubation, MTT was added to both the top and bottom wells (0.5 mg/mL), and incubation was continued for 4 hr. Wells were then emptied, and the cells from the undersides of the filter were pooled with those in the bottom wells with a filter tip. The reduced MTT (formazan) from top and bottom wells was solubilized with DMSO overnight, and absorbance (O.D.) at 515 nm was measured. The ratio of the O.D. from the bottom wells to that of the total (i.e., O.D. of top plus bottom wells) was taken as the invasive potential. […] The MTT assay procedure also normalizes the coincident inhibition due to the cytotoxic effects of the agents under investigation. Results presented are from three independent experiments.

Gelatinase A = target: T1, Gelatinase A (Homo sapiens, UniProt P08253); assay: Zymography with densitometry of C8161 conditioned medium, gelatinase A; type: cell-based; conditions: 50 μg/mL, 24 hr
T1 construct: endogenous in cells; host or cells: C8161
T1 sequence (P08253 110-660): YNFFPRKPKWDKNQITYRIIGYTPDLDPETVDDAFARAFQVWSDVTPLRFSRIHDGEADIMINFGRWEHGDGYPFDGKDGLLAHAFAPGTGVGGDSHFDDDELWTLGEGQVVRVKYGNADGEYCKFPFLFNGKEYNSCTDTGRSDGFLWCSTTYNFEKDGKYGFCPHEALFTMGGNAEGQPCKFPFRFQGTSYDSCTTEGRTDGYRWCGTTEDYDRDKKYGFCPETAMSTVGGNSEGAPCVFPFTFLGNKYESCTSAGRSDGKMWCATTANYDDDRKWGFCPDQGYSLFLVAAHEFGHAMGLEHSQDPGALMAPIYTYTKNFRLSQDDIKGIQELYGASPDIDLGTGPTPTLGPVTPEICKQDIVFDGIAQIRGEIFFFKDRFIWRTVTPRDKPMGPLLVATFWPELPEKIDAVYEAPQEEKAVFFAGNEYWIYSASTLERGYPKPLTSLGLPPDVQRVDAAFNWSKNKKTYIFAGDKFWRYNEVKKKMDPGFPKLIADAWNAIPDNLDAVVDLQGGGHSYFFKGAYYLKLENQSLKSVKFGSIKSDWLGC
Experimental: (§1) Six hundred thousand (6×10^5) C8161 cells were seeded per well in a 12-well dish coated with a laminin/collagen IV/gelatin matrix in DMEM plus Mito+ and 0.1% gentamicin sulfate. After approximately 1 hr incubation to allow the cells to attach, 50 μg/mL of either doxycycline or one of the other CMTs was added per well and the dish then placed in a 37° C. humidified 5% CO2 incubator. After 24 hr, the supernatants were removed and centrifuged to remove any cells or debris. One volume of Laemmli sample buffer minus reductant was added to two volumes of the medium, and this sample electrophoresed without prior heating or boiling on a 10% SDS-PAGE containing 0.1% gelatin (samples normalized based on the same number of cells per volume of medium per time of incubation). After electrophoresis, the gels were washed with gentle shaking at room temperature for 30 min in 50 mM Tris-HCl (pH 7.5) plus 2.5% TRITON® X100 plus 50 μg/mL of the corresponding CMT used in the original treatment. The gel was then placed in incubation buffer (50 mM Tris-Cl/10 mM CaCl2/150 mM NaCl/0.05% NaN3) also containing 50 μg/mL of the corresponding CMT, and incubated at 37° C. for 20-24 hr. The gels were stained with Coomassie BBR-250, then destained with 10% methanol/10% acetic acid in water until the wash remained clear. A photographic negative of the gel was digitized using a video camera and Snappy Video Snapshot system (Play Inc., Rancho Cordova, Calif.). An integrated density was determined for each of the cleared zones of proteolysis using the software ImagePC8α (freely available from the National Institutes of Health), and the corresponding changes in gelatinolytic activities reported compared to the control samples normalized to a value of 1.0.

Gelatinase B = target: T2, Gelatinase B (Homo sapiens, UniProt P14780); assay: Zymography with densitometry of C8161 conditioned medium, gelatinase B; type: cell-based; conditions: 50 μg/mL, 24 hr
T2 construct: endogenous in cells; host or cells: C8161
Experimental: as §1

[4] = tested on: C8161 human melanoma cells; assay: In vitro invasion assay (MICS), laminin/collagen IV/gelatin matrix-coated filter; type: cell-based; conditions: 3, 20 and 50 μg/mL; for Percent Inhibition of invasive potential: 48 hr
Experimental: The in vitro invasive potentials of the control (DMSO only) and chemically-modified tetracycline treated cells were measured using a modified Boyden chamber as previously described (Membrane Invasion Culture System, MICS). An intervening barrier consisting of a polycarbonate filter containing 10 μm pores (Osmonics, Livermore, Calif.) coated with a defined matrix of human laminin/collagen IV/gelatin (Sigma, St. Louis, Mo.) was used for these studies. […] Doxycycline or individual CMTs were then added to different wells of the chamber at 3, 20 or 50 μg/mL 2 hr post-seeding and daily during the assay. After 48 hr, the cells were removed from the lower wells and the number of invasive cells was determined and compared to the original number of cells seeded into the upper wells. Where appropriate, data were corrected for proliferation during the period of the in vitro assay.

[5] = Blood levels after oral gavage of adult rats
Description: In the treatment of certain localized cancers, the degree of hydrophilicity of the non-antimicrobial tetracycline compound can be of lesser importance.

[6] = Solubility in aqueous systems; type: physicochemical
E-10 Cells = assay: MTS cytotoxicity assay, E-10; conditions: two days
Experimental: A panel of chemically modified tetracycline compounds and doxycycline were tested for cytotoxicity against two carcinomas: COLO 205 (a human colon carcinoma-derived cell line) and the E-10 clone of MDA-MB-231 (a human breast carcinoma-derived cell line). Cytoxicity was measured using a conventional assay for viability with a tetrazolium salt (MTS). Cells were grown in media containing the CMTs at concentrations ranging from 5 μM to 100 μM for two days. The cells were then incubated with the MTS for several hours before removal of the supernatant medium for determination of formazan, which is generated only by the viable cells. Results are expressed as percent cytotoxicity, which is simply the percent decline in measured formazan concentration in the sampled medium.

COLO 205 Cells = assay: MTS cytotoxicity assay, COLO 205; conditions: two days
C8161 cells = assay: C8161 cell proliferation (doubling time); type: cell-based, human; conditions: 50 μg/mL
Experimental: Cell Culture and Maintenance: C8161 cells, a human melanoma cell line, were maintained in Dulbecco's modified Eagle's medium (DMEM; […] These cells were routinely screened for Mycoplasma contamination using the GenProbe Rapid Detection System (Fisher Scientific; Chicago, Ill.). Chemically Modified Tetracyclines: Fresh stock solutions of the chemically modified tetracycline compounds (2 mg/mL) were prepared for each experiment by hydrating in 2% dimethyl sulfoxide (DMSO)/water pH 10, then adjusting to pH 7.4 using 1.0 M HCl. […] Sigma Chem. Co.; control) or 50 μg/mL of doxycycline or the other CMTs (three wells on each plate per compound). […] The doubling time for C8161 cells in the presence of each compound was then determined and compared to the DMSO treated cells (control).

T2 sequence (P14780 94-707): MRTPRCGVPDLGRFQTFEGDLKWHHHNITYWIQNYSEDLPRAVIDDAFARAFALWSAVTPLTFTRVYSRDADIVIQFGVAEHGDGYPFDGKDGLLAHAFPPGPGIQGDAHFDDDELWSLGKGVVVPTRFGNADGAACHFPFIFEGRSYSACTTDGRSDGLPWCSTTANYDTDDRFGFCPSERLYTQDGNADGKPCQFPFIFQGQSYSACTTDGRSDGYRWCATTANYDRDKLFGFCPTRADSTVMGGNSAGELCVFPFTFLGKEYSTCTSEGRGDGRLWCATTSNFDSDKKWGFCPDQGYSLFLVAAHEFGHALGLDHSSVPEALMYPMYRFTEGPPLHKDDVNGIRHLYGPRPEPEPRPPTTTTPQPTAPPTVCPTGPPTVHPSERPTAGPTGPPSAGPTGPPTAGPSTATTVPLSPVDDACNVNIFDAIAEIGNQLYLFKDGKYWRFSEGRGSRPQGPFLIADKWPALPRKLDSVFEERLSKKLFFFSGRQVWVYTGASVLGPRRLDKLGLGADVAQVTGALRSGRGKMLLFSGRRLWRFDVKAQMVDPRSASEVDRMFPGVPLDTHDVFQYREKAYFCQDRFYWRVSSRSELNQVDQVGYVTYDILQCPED

Compound | 50% inhibition dose (IC50), cell proliferation [1] | Gelatinase A, integrated density normalized to control 1.00 (Gelatinase A) | Gelatinase B, integrated density normalized to control 1.00 (Gelatinase B) | Type of Inhibition [4] | Percent Inhibition of invasive potential [4] | percent cytotoxicity (E-10 Cells; 5 μM) | percent cytotoxicity (E-10 Cells; 10 μM) | percent cytotoxicity (E-10 Cells; 20 μM) | percent cytotoxicity (E-10 Cells; 50 μM) | percent cytotoxicity (E-10 Cells; 100 μM) | percent cytotoxicity (COLO 205 Cells; 5 μM) | percent cytotoxicity (COLO 205 Cells; 10 μM) | percent cytotoxicity (COLO 205 Cells; 20 μM) | percent cytotoxicity (COLO 205 Cells; 50 μM) | percent cytotoxicity (COLO 205 Cells; 100 μM) | further results
CN(C)C1C(=O)C(C#N)=C(O)C2(O)C(=O)C3=C(O)c4c(O)cccc4C(C)(O)C3CC12 (stereo not shown) [CMT-2, tetracyclinonitrile] | 5.7 µg/mL | 0.89 | 1.51 | non-dose | ˜10% | 1.5% | 3.8% | 0.8% | 0% | 2.3% | 2.7% | 4.5% | 0% | 7% | 16.3% | inhibition of cell proliferation (rank among tested drugs) (Dunning MAT LyLu cells [2]): most effective inhibitors of cell proliferation; inhibition of invasive/metastatic potential (Matrigel invasion) (Dunning MAT LyLu cells [3]): equally inhibited; blood levels ([5]; rat, in vivo, po): no detectable blood levels; solubility in aqueous systems [6]: low solubility in aqueous systems
CC1(O)c2cccc(O)c2C(=O)C2=C(O)C3(O)C(=O)C(C(N)=O)=C(O)C(O)C3CC21 (stereo not shown) [CMT-6, 4-hydroxy-4-de(dimethylamino)tetracycline] | 120 µg/mL | 0.07 | 0.51 | dose dependent | 8-50% | 0% | 6% | 3% | 7.6% | 16.7% | 1.7% | 0% | 0% | 0% | 22.2% | Doubling Time (C8161 cells; on plastic, DMSO 22 hr): 24 h; increase of doubling time (C8161 cells; versus DMSO): approximately 9%; blood levels ([5]; adult rats, oral gavage): no detectable blood levels
